# Source: paper PMC10820479, “An Improved In Vitro Blood-Brain Barrier Model for the Evaluation of Drug Permeability Using Transwell with Shear Stress” (Pharmaceutics, 2023)
# Counter-ions that a name gives are not always drawn. Like-named read-outs stand apart in the source and are kept apart here.
# Assays:
# [1] = Permeability test in the optimized annular shaking dish (AS) BBB model; conditions: human
# Description: (§1) The culture inserts (Costar®, Washington, DC, USA, 6.5 mm diameter) of polycarbonate (PC) and polyester (PET) membrane were procured from Corning Inc. (Corning, NY, USA). […] After washing twice with PBS, the cells were seeded at a density of 1 × 10^5 hCMEC/D3 cells/well in the apical chamber and 3 × 10^4 U87MG cells/well on the basolateral side of the insert. The cultivation method was modified from that described in the literature. Briefly, the insert was inverted, and U87MG cells were initially seeded. The insert was flipped 3–4 h after seeding the U87MG cells. Subsequently, hCMEC/D3 cells were seeded 1 day later.
# (§2) To prevent nonspecific binding, all compounds were pre-incubated for 30 min prior to the permeability study. The samples were collected at 0 min from the donor and at 30, 60, and 90 min from the acceptor and immediately replaced with a new transport buffer. Incubation was carried out in a humidified 5% CO2 environment at 37 °C with shaking at 100 rpm.
# (§3) After culturing the cells in culture inserts, as described in Section 2.3, they were transferred to the AS prepared on day 3, and cultivation was carried out with orbital shaking at 150 rpm until day 17 (Figure 1b). The cultivated AS BBB model was employed to investigate the effects of the AS size, as well as the influence of FBS and ITS.
# (§4) Chromatographic separations were performed on Agilent Poroshell 120 EC-C18 (3.0 × 50 mm, 2.7 µm; Agilent Technologies, Inc., Santa Clara, CA, USA) and YMC triart C18 (2.0 × 50 mm, 3 µm; YMC Co., Ltd., Kyoto, Japan) columns using 5 mM ammonium formate in water (pH 4) and methanol.
# (§5) The optimized AS BBB model was evaluated as follows.
# [2] = rat; unbound plasma-CSF partition coefficient; cited from earlier work
# [3] = test system: in vitro AS BBB model (hCMEC/D3 co-cultured with U87MG); test: Permeability test in the optimized annular shaking dish (AS) BBB model; conditions: optimized AS BBB model
# Description: as §1, §2, §3, §4, §5
# P-gp = test: Efflux transporter inhibition assay, P-gp, AS BBB model; format: in vitro ADME; conditions: human, optimized AS BBB model
# Description: A modified method from a previously published paper was used for the inhibition assay. […] The bidirectional permeability of substrates was evaluated by measuring changes in Papp and the efflux ratio for both the inhibitor- and vehicle-treated groups. The concentration of dantrolene was determined using liquid chromatography with tandem mass spectrometry (LC-MS/MS).
# P-glycoprotein (P-gp) = test: Rhodamine 123 efflux (bidirectional permeability, P-gp activity); conditions: for efflux ratio: 10 μM; for efflux ratio at 90 min, 10 μM: human, not told
# Description: Bidirectional permeability tests were performed at time points of 0, 30, 60, and 90 min with shaking at 100 rpm. Each sample was measured at 480 nm/530 nm (excitation/emission wavelengths) using the VICTOR® Nivo multimode plate reader. The apparent permeability coefficient (Papp) was determined using Equation (2):Papp (cm/s) = dQ/dt × 1/(A × C0)(2) where: • A is the surface area of the insert filter membrane (cm^2) • C0 is the initial concentration in the donor solution (μM) • dQ/dt is the amount of the drug transported within a given time period (pmol/s)
# [4] = test system: hCMEC/D3 cell layer on transwell inserts; test: Lucifer yellow (LY) diffusion, cell layer integrity; conditions: AS BBB model (discussion)
# [5] = monkey; unbound plasma-CSF partition coefficient; cited from earlier work
compound,measurement,setting,value
"CCN1CCCC1CNC(=O)c1cc(S(N)(=O)=O)ccc1OC (stereo not shown) [Sulpiride, sulpiride]","Papp at 90 min, 20 μM",[1],10.2 ± 0.82 ×10⁻⁶ cm/s
same,"Kp,uu,CSF",[2],0.049 (rat) ^2
"COC(=O)c1ccccc1-c1c2ccc(=N)cc-2oc2cc(N)ccc12 [Rhodamine123, rhodamine 123]","Papp at 90 min, 20 μM",[1],0.67 ± 0.14 ×10⁻⁶ cm/s
same,permeability (in words),[3],low
same,efflux ratio at 10 μM,"P-gp; with cyclosporin A 10 μM, with P-gp inhibitor cyclosporin A 10 μM",1.6 ± 0.13
same,efflux ratio at 10 μM,"P-gp; without inhibitor, 10 μM",4.2 ± 0.15
same,efflux ratio,P-glycoprotein (P-gp); 15 cm AS group,exceeding two
same,efflux ratio,"P-glycoprotein (P-gp); 15 cm AS, 5% FBS + ITS",4.04 ± 0.04
same,"efflux ratio at 90 min, 10 μM","P-glycoprotein (P-gp); 15 cm AS, 2% FBS + ITS",6.73 ± 0.94
same,"efflux ratio at 90 min, 10 μM","P-glycoprotein (P-gp); 15 cm AS, 5% FBS",2.4 ± 0.05
same,"efflux ratio at 90 min, 10 μM","P-glycoprotein (P-gp); 15 cm AS, 5% FBS + ITS",4 ± 0.04
lucifer yellow CH dipotassium salt [LY],transport of LY through the paracellular pathway,[4],less than 1%
"CC(C)NCC(O)COc1cccc2ccccc12 (stereo not shown) [Propranolol, propranolol HCl]","Papp at 90 min, 20 μM",[1],24.6 ± 4.5 ×10⁻⁶ cm/s
"O=C1NC(=O)C(c2ccccc2)(c2ccccc2)N1 [Phenytoin, phenytoin sodium]","Papp at 90 min, 20 μM",[1],21.8 ± 1.2 ×10⁻⁶ cm/s
Cc1ncc2n1-c1ccc(Cl)cc1C(c1ccccc1F)=NC2 [Midazolam],Papp,[1],41.5 ± 2.8 ×10⁻⁶ cm/s
same,"Kp,uu,CSF",[2],1.35 (rat) ^2
"NC(=O)N1c2ccccc2C=Cc2ccccc21 [Carbamazepine, carbamazepine]","Papp at 90 min, 20 μM",[1],29 ± 4.4 ×10⁻⁶ cm/s
same,permeability (in words),[3],high permeability
same,"Kp,uu,CSF",[5],0.979 (monkey) ^3
